The record followed here is ChEMBL document CHEMBL1667741, “Rational design, synthesis, and characterization of highly fluorescent optical switches for high-contrast optical lock-in detection (OLID) imaging microscopy in living cells” (Bioorg Med Chem, 2011).

What all share (assay type): ADME, cell-based
Holding throughout (conditions): nih3t3

Data set [1] is described as follows: Drug uptake in mouse NIH/3T3 cells assessed as fluorescent optical switching measured after continuous irradiation at 546 and 365 nm light by optical lock-in detection imaging microscopy.
A short description of data set [2]: Drug uptake in mouse NIH/3T3 cells assessed as fluorescent optical switching measured after every 2 s with 100 ms pulse of 365 nm irradiation by optical lock-in detection imaging microscopy.
The nature of data set [3]: Drug uptake in mouse NIH/3T3 cells assessed as fluorescent optical switching measured after continuous irradiation at 546 nm light by optical lock-in detection imaging microscopy. On the set-up: dose or concentration left out as unconfirmed.

With `CN(C)c1ccc2c(-c3ccc(C(=O)NCc4cccc5c4C(C)(C)C4(C=Nc6c(ccc7ccc(O)cc67)O4)N5C)cc3C(=O)[O-])c3ccc(=[N+](C)C)cc-3oc2c1` (centres undefined), the Drug uptake entry in data set [1] is “Active”.
On to `CN(C)c1ccc2c(-c3ccc(C(=O)NCCc4ccc5c(c4)C(C)(C)C4(C=Nc6c(ccc7ccccc67)O4)N5C)cc3C(=O)[O-])c3ccc(=[N+](C)C)cc-3oc2c1` (centres undefined), for which the Drug uptake result in data set [1] was “Active”.
Regarding `CN(C)c1ccc2c(-c3ccc(C(=O)NCc4cccc5c4C(C)(C)C4(C=Nc6c(ccc7ccccc67)O4)N5C)cc3C(=O)[O-])c3ccc(=[N+](C)C)cc-3oc2c1` (centres undefined), the Drug uptake result in data set [1] and in data set [2] was “Active” throughout.
In the case of `CN(C)c1ccc2c(-c3ccc(C(=O)NCCCOc4ccc5ccc6c(c5c4)N=CC4(O6)N(C)c5ccc(CCCC(=O)ON6C(=O)CCC6=O)cc5C4(C)C)cc3C(=O)[O-])c3ccc(=[N+](C)C)cc-3oc2c1` (centres undefined), the Drug uptake entry in data set [1] is given as “Active”.
`CN(C)c1ccc2c(-c3ccc(C(=O)NCCCOc4ccc5ccc6c(c5c4)N=CC4(O6)N(CCCCCC(=O)ON5C(=O)CCC5=O)c5ccccc5C4(C)C)cc3C(=O)[O-])c3ccc(=[N+](C)C)cc-3oc2c1` (centres undefined): the Drug uptake result in data set [1] was “Active”.
`CN(C)c1ccc2c(-c3ccc(C(=O)NC(CCCCNC(=O)CCCc4ccc5c(c4)C(C)(C)C4(C=Nc6c(ccc7ccccc67)O4)N5C)C(=O)O)cc3C(=O)[O-])c3ccc(=[N+](C)C)cc-3oc2c1` (centres undefined): the Drug uptake result in data set [1] is given as “Active”.
For the compound `COc1ccc2ccc3c(c2c1)N=CC1(O3)N(C)c2cccc(CNC(=O)c3ccc(-c4c5ccc(=[N+](C)C)cc-5oc5cc(N(C)C)ccc45)c(C(=O)[O-])c3)c2C1(C)C` (centres undefined), the Drug uptake result in data set [1] and in data set [3] was “Active” throughout.
